Experimental data: ChEMBL document CHEMBL1149891, “Rationally designed PKA inhibitors for positron emission tomography: Synthesis and cerebral biodistribution of N-(2-(4-bromocinnamylamino)ethyl)-N-[11C]methyl-isoquinoline-5-sulfonamide” (Bioorg Med Chem, 2008)
pIC50: −log10 of the molar value.

Columns and labels:
[1] = Inhibition of PKA
[2] = Biodistribution in tail vein injected Sprague-Dawley rat brain after 5 to 60 mins; assay type: ADME, organism-based; details: iv, read-out: Drug uptake
[3] = Partition coefficient, log P in phosphate buffer at pH 7.4; assay type: physicochemical

| pIC50 [1] | tissue uptake [2] | logD [3] | Structure (SMILES) |
| --- | --- | --- | --- |
| 6.03 | – | – | O=S(=O)(NCCNC/C=C/c1ccc(Br)cc1)c1cccc2cnccc12 |
| 5.89 | < 0.2 %ID/g | 2.93 | CN(CCNC/C=C/c1ccc(Br)cc1)S(=O)(=O)c1cccc2cnccc12 |
